The text below walks through data of ChEMBL document CHEMBL2010731, “Discovery of P2X3 selective antagonists for the treatment of chronic pain” (Bioorg Med Chem Lett, 2012).

The structures appear in SMILES notation.

In general, logD refers to the decadic logarithm of the distribution of all forms, ionised or not, between an organic phase and buffer at a given pH. Read a low logD as lower lipophilicity. A word on the half-life: it is the time needed for the level to fall by half in the phase considered. Higher therefore signals slow decline. One may read the AUC as concentration integrated over time. Higher therefore signals high exposure. One may read the clearance as the volume of plasma or blood freed of the substance per unit of time. The low end stands for inefficient removal, the high end for efficient removal. The term Cmax denotes the highest concentration seen after dosing. Broadly, the Papp A→B is the apparent permeability from the apical to the basolateral side of a cell layer. As a reminder, the bioavailability is the share of a dose that reaches the circulation, judged against a reference dose that is usually intravenous. Low values mean poor availability, high ones good availability.

A short description of series [1]: Lipophilicity, log D of the compound at pH 7.4. It counts as physicochemical. As to conditions: buffer.
The nature of series [2]: Half life in rat at […], iv. Conditions: in vivo. Format: ADME, organism-based.
Series [3] in a line: Intrinsic clearance in rat liver microsomes. It counts as ADME, Microsome. As to conditions: read-out: CLH. In general terms: Liver microsomes are a subcellular fraction often used to study metabolism.
A short description of series [4]: AUC in rat at […], iv. As to conditions: plasma. Format: ADME, organism-based.
Series [5] in a line: Clearance in rat at […], iv. As to conditions: in vivo. Format: ADME, organism-based.
Series [6] is described as follows: Cmax in rat at […], sc. Format: ADME, organism-based. Further details: dose 5.9 umol/kg, route subcutaneous. Conditions: in vivo.
A short description of series [7]: AUC in rat at […], sc. Conditions: plasma. Format: ADME, organism-based.
Series [8] is described as follows: Ratio of drug level in brain to plasma in Sprague-Dawley rat. Format: ADME. As to conditions: read-out: BPR.
A short description of series [9]: Intrinsic clearance in human liver microsomes at 1 uM. Conditions: read-out: CLH. Format: ADME, Microsome.
Series [10] can be described thus: Apparent permeability from apical to basal side of human Caco2 cells at 10 uM. It counts as ADME, cell-based. Conditions: Caco-2. (Caco-2 cells form a polarised layer with tight junctions and transporters.)
Series [11] is described as follows: Half life in rat at 11 umol/kg, iv. Format: ADME, organism-based. As to conditions: in vivo.
Series [12] in a line: Clearance in rat at 11 umol/kg, iv. Conditions: in vivo. It counts as ADME, organism-based.
Series [13] is described as follows: Half life in dog at […], iv. It counts as ADME, organism-based, Canis lupus familiaris. As to conditions: in vivo.
A short description of series [14]: AUC in rat at 58 umol/kg, po. It counts as ADME, organism-based. Conditions: plasma.
The nature of series [15]: Cmax in rat at 12 umol/kg, po. Format: ADME, organism-based. Also noted: dose 12 umol/kg, route oral. As to conditions: in vivo.
The nature of series [16]: Drug excretion in rat faces at high dose, iv. Format: ADME, Feces. Conditions: faeces, read-out: Drug excretion.
Series [17] is described as follows: AUC in rat at 11 umol/kg, iv. It counts as ADME, organism-based. Conditions: plasma.
A short description of series [18]: AUC in dog at […], iv. It counts as ADME, organism-based, Canis lupus familiaris. Conditions: plasma.
A short description of series [19]: Clearance in dog at […], iv. It counts as ADME, organism-based, Canis lupus familiaris. As to conditions: in vivo.
Series [20] is described as follows: Oral bioavailability in rat at 12 umol/kg. It counts as ADME, organism-based. Conditions: in vivo.
Series [21] is described as follows: AUC in rat at 12 umol/kg, po. Conditions: plasma. It counts as ADME, organism-based.
Series [22] is described as follows: Oral bioavailability in rat at 58 umol/kg. Conditions: in vivo. Format: ADME, organism-based.
Series [23] can be described thus: Drug excretion in iv dosed rat faces. Conditions: faeces, read-out: Drug excretion. Format: ADME, organism-based, Feces.
Series [24] in a line: Cmax in rat at 58 umol/kg, po. Further details: dose 58 umol/kg, route oral. Format: ADME, organism-based. Conditions: in vivo.
Series [25] is described as follows: Clearance in dog hepatocytes assessed per 10^6 cells. Conditions: read-out: CLH. It counts as ADME, cell-based, Canis lupus familiaris, Hepatocyte.

For the compound `CC(C)N1Cc2c(NC(c3ccccc3)c3ccccc3)nc(N3CCOCC3)nc2C1=O`, the logD in series [1] worked out at 4.3.
In series [2], `CC(=O)N1CCN(c2nc(NC(C)(C)Cc3ccc(Cl)cc3)c3c(n2)C(=O)N(C(C)C)C3)CC1` had a half-life of 0.9 h. Moreover, the microsomal CLint in [3] was 83 µL/min/mg. Moreover, the AUC in [4] was determined as 0.7 µM·h; in [7], 2.8 µM·h. In series [5], this compound gave a clearance of 54 mL/min/kg. In [6], this compound had a Cmax of 1000 nM. For the same compound, in [8], the Kp was 0.02.
In the case of `CC(=O)N1CCN(c2nc(NCc3ccc(Cl)cc3)c3c(n2)C(=O)N(C(C)C)C3)CC1`, the microsomal CLint at 1 µM in series [9] was found to be 6 µL/min/mg.
Consider `CC(=O)N1CCN(c2nc(NCc3ccc(C(F)(F)F)cc3)c3c(n2)C(=O)N(C(C)C)C3)CC1`, for which, in series [9], the microsomal CLint at 1 µM was found to be 31 µL/min/mg.
Turning to `CC(=O)N1CCN(c2nc(NCc3ccc(OC(F)(F)F)cc3)c3c(n2)C(=O)N(C(C)C)C3)CC1`, the Papp A→B at 10 µM in [10] was 2.9 ×10⁻⁶ cm/s. For the same compound, in [9], the microsomal CLint at 1 µM came out at 4 µL/min/mg.
With `COc1cc(OC(F)(F)F)ccc1CNc1nc(N2CCN(C(C)=O)CC2)nc2c1CN(C(C)C)C2=O`, the microsomal CLint at 1 µM in series [9] was found to be 31 µL/min/mg.
Regarding `CC(=O)N1CCN(c2nc(N[C@H](C)c3ccc(OC(F)(F)F)cc3)c3c(n2)C(=O)N(C(C)C)C3)CC1`, the Papp A→B at 10 µM in [10] amounted to 4.5 ×10⁻⁶ cm/s. Also, the microsomal CLint at 1 µM in series [9] turned out to be 22 µL/min/mg.
As to `COc1ccc([C@@H](C)Nc2nc(N3CCN(C(C)=O)CC3)nc3c2CN(C(C)C)C3=O)cc1`, in [9], the microsomal CLint at 1 µM turned out to be 4 µL/min/mg.
As to `CCOc1ccc([C@@H](C)Nc2nc(N3CCN(C(C)=O)CC3)nc3c2CN(C(C)C)C3=O)cc1`, the half-life in [11] is 2 h; in [2], 0.5 h; in [13], 14.5 h. Further, in series [3], the microsomal CLint is 17 µL/min/mg. For the same compound, the figures for the clearance in [12], in [5] and in series [19] were 22 mL/min/kg, 88 mL/min/kg and 8 mL/min/kg, respectively. Also, the AUC turned out to be 1.8 µM·h in series [14]; 8.05 µM·h in series [17]; 0.4 µM·h in series [4]; 4.8 µM·h in [18]; 0.4 µM·h in series [21]. For the same compound, the values for the Cmax in [15] and in series [24] were 100 nM and 6900 nM, respectively. Further, the dose excreted in series [16] is below 3%; in series [23] it was above 15%. The bioavailability in [20] is 16%; in series [22], 62%. In addition, in [10], the Papp A→B at 10 µM was 2.4 ×10⁻⁶ cm/s. The microsomal CLint at 1 µM in [9] is 10 µL/min/mg. In addition, in [1], the logD is 3. Moreover, in [25], the hepatocyte CLint turned out to be 2.5 µL/min/1e6 cells.
Turning to `CCOc1ccc([C@@H](CC)Nc2nc(N3CCN(C(C)=O)CC3)nc3c2CN(C(C)C)C3=O)cc1`, in [3], the microsomal CLint turned out to be 58 µL/min/mg. For the same compound, in [9], the microsomal CLint at 1 µM stood at 10 µL/min/mg.
As for `CCOc1ccc([C@H](Nc2nc(N3CCN(C(C)=O)CC3)nc3c2CN(C(C)C)C3=O)C(F)(F)F)cc1`, the Papp A→B at 10 µM in series [10] is 2 ×10⁻⁶ cm/s. Also, the microsomal CLint at 1 µM in [9] stood at 5 µL/min/mg.
For `CCOc1ccc([C@@H](C)Nc2nc(N3CCN(C(C)=O)CC3)nc3c2CN(C(C)C)C3=O)cc1F` the same measures were 0.8 ×10⁻⁶ cm/s and 17 µL/min/mg.
For `CCOc1ncc([C@@H](C)Nc2nc(N3CCN(C(C)=O)CC3)nc3c2CN(C(C)C)C3=O)cc1F`, the microsomal CLint at 1 µM in [9] stood at 7 µL/min/mg.
`CC(=O)N1CCN(c2nc(NCc3cnc4ccccc4c3)c3c(n2)C(=O)N(C(C)C)C3)CC1`: the Papp A→B at 10 µM in [10] amounted to 0.1 ×10⁻⁶ cm/s. In series [9], the microsomal CLint at 1 µM turned out to be 11 µL/min/mg.
For `CC(=O)N1CCN(c2nc(NCc3cc4ccccc4cn3)c3c(n2)C(=O)N(C(C)C)C3)CC1` the same measures were 0.6 ×10⁻⁶ cm/s and 16 µL/min/mg.
For `CC(=O)N1CCN(c2nc3c(c(N(C)Cc4cc5ccccc5cn4)n2)CN(C(C)C)C3=O)CC1` the same measures were 2.9 ×10⁻⁶ cm/s and 19 µL/min/mg.
